Assay results reported in patent US20240182481A1 (Tango Therapeutics, Inc., priority 2021, published 2024).
Like-named read-outs stand apart in the source and are kept apart here.

Assays:
USP1-UAF1 = USP1-UAF1 (Homo sapiens, UniProt O94782); assay: Ubiquitin Rhodamine assay for USP1-UAF1 activity; format: biochemical
Protocol: Certain compounds of the disclosure were assessed for USP1-UAF1 activity in a Ubiquitin Rhodamine assay as described in Example 135.

monoubiquitinated PCNA = assay: AlphaLISA assay measuring monoubiquitinated PCNA in MDA-MB-436; format: cell-based; settings: read-out: Alpha LISA IC50
Excerpt: Table 1 also indicates IC50 values for exemplary compounds in an AlphaLISA assay measuring monoubiquitinated PCNA in a BRCA1 mutant cell line (MDA-MB-436; column 7).

[1] = test system: MDA-MB-436 (BRCA1 mutant) cell line; assay: Viability assay in BRCA1 mutant cell line MDA-MB-436; format: cell-based; settings: BRCA1 mutant MDA-MB-436, read-out: MDA-MB-436 rel IC50
Excerpt: (§1) Table 1 also indicates IC50 values in a viability assay for a non-isogenic pair of BRCA1 mutant (column 5—MDA-MB-436) and BRCA1 WT (column 6—HCC1954) cell lines. These values indicate the effect of treatment with compound on cell survival.

[2] = test system: HCC1954 (BRCA1 WT) cell line; assay: Viability assay in BRCA1 WT cell line HCC1954; format: cell-based; settings: read-out: HCC 1954 IC50 rel IC50
Excerpt: as §1

[3] = Homo sapiens, MDA-MB-436, viability

Sequence of USP1-UAF1 (O94782 whole entry): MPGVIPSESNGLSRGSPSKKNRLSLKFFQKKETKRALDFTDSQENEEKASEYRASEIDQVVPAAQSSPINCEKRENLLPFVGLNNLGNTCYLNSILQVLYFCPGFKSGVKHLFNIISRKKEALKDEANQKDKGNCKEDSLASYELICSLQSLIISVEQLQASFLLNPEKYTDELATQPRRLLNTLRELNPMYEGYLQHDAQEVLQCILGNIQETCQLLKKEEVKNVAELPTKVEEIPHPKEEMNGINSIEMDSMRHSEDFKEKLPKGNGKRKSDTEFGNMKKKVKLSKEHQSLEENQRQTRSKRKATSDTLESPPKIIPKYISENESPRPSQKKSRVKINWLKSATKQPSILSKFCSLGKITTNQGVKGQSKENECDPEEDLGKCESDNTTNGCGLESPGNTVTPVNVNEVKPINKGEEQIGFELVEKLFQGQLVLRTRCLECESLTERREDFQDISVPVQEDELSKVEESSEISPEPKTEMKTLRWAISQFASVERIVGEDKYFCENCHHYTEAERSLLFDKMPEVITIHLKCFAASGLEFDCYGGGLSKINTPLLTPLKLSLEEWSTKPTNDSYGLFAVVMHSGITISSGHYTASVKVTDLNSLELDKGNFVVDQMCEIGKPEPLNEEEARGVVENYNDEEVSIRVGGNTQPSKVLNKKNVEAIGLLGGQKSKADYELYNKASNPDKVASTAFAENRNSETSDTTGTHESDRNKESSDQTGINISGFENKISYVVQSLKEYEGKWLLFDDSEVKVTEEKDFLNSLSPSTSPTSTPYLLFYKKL
Sequence of USP1-UAF1 (Q8TAF3 whole entry partner): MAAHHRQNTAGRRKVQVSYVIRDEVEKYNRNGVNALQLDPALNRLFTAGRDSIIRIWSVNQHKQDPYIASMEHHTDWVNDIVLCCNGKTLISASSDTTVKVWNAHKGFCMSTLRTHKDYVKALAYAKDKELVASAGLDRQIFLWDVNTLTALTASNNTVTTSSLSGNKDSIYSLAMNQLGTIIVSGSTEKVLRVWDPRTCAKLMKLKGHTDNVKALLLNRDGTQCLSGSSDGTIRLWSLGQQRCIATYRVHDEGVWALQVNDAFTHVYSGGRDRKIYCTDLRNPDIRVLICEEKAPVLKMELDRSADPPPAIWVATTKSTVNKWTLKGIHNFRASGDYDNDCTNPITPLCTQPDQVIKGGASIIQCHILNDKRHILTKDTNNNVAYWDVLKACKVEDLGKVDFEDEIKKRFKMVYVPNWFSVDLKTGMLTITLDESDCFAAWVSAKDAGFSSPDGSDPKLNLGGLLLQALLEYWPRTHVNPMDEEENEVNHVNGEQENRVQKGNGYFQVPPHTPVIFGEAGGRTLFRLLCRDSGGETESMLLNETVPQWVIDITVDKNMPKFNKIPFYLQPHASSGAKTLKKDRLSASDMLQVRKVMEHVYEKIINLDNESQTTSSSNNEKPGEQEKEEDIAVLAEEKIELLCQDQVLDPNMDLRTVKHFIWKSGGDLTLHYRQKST

| IC50 (USP1-UAF1) [nM] | IC50 (monoubiquitinated PCNA; Homo sapiens) [nM] | IC50 [1, 3] [nM] | IC50 ([2]; Homo sapiens) [nM] | IC50 (monoubiquitinated PCNA) [nM] | IC50 ([1]; viability) [nM] | IC50 [2] [nM] | Structure (SMILES) |
| --- | --- | --- | --- | --- | --- | --- | --- |
| < 30 | < 100 | < 100 | 250 to 10000 |  |  |  | C[C@@H](Oc1ncccc1-c1ncc2[nH]cc(Cc3ccc(-c4nc(C(F)(F)F)cn4C)cc3)c2n1)C(F)(F)F (single isomer, unassigned) [Compound 21] |
| < 30 | < 100 | < 100 | 250 to 10000 |  |  |  | C[C@H](Oc1ncccc1-c1ncc2[nH]cc(Cc3ccc(-c4nc(C(F)(F)F)cn4C)cc3)c2n1)C(F)(F)F (single isomer, unassigned) [Compound 51] |
| < 30 | < 100 | < 100 | 250 to 10000 |  |  |  | CC(C)c1ccccc1-c1ncc2[nH]cc([C@H](C)c3ccc(-c4nc(C(F)(F)F)cn4C)cc3)c2n1 (single isomer, unassigned) [Compound 64] |
| < 30 | 100 to 250 | 250 to 10000 | 250 to 10000 |  |  |  | Cn1cc(C(F)(F)F)nc1-c1ccc([C@@](C)(O)c2c[nH]c3cnc(-c4cccnc4OCC(F)(F)F)nc23)cc1 (single isomer, unassigned) [Compound 74] |
| < 30 | < 100 | < 100 | 250 to 10000 |  |  |  | CC(C)c1ccccc1-c1ncc2[nH]cc([C@@H](C)c3ccc(-c4nc(C(F)(F)F)cn4C)cc3)c2n1 (single isomer, unassigned) [Compound 82] |
| < 30 | < 100 | < 100 | 250 to 10000 |  |  |  | COc1ncnc(C2CC2)c1-c1ncc2[nH]cc(C(C)c3ccc(-c4nc(C(F)(F)F)cn4C)cc3)c2n1 (single isomer, unassigned) [Compound 89] |
| 30 to 100 | < 100 | < 100 | ≥ 10000 |  |  |  | COc1ncnc(C2CC2)c1-c1ncc2c(n1)c(Cc1ccc(-c3nc(C(F)(F)F)cn3C)cc1)nn2C(C)C (single isomer, unassigned) [Compound 98, 5-(4-cyclopropyl-6-methoxy-pyrimidin-5-yl)-1-isopropyl-3-[[4-[1-methyl-4-(trifluoromethyl)imidazol-2-yl]phenyl]methyl]pyrazolo[4,3-d]pyrimidine] |
| 30 to 100 | < 100 | < 100 | ≥ 10000 |  |  |  | Cn1cc(C(F)(F)F)nc1-c1ccc(C(O)c2c[nH]c3cnc(-c4c(OC(F)F)ncnc4C4CC4)nc23)cc1 (single isomer, unassigned) [Compound 103] |
| 100 to 10000 | 100 to 250 | 100 to 250 | ≥ 10000 |  |  |  | COc1ncnc(C2CC2)c1-c1ncc2nn(C(C)C)c(Cc3ccc(-c4nc(C(F)(F)F)cn4C)cc3)c2n1 (single isomer, unassigned) [Compound 104, 5-(4-cyclopropyl-6-methoxy-pyrimidin-5-yl)-2-isopropyl-3-[[4-[1-methyl-4-(trifluoromethyl)imidazol-2-yl]phenyl]methyl]pyrazolo[4,3-d]pyrimidine] |
| < 30 |  |  |  | < 100 | < 100 | ≥ 10000 | Cn1cc(C(F)(F)F)nc1-c1ccc(C(O)c2c[nH]c3cnc(-c4c(OC(F)F)ncnc4C4CC4)nc23)cc1 (single isomer, unassigned) [Compound 141] |
| 30 to 100 | < 100 | 100 to 250 | 250 to 10000 |  |  |  | COc1ncnc(C2CC2)c1-c1ncc2[nH]cc([C@@H](c3ccc(-c4nc(C(F)(F)F)cn4C)cc3)C(C)C)c2n1 (single isomer, unassigned) [Compound 151] |
| 30 to 100 | < 100 | < 100 | ≥ 10000 |  |  |  | CC(C)c1ccccc1-c1ncc2[nH]cc(C(O)c3ccc(-c4nc(C(F)(F)F)cn4C)cc3)c2n1 (stereo not drawn) [Compound 1, [2-(2-isopropylphenyl)-5H-pyrrolo[3,2-d]pyrimidin-7-yl]-[4-[1-methyl-4-(trifluoromethyl)imidazol-2-yl]phenyl]methanol] |
| 30 to 100 | < 100 | 100 to 250 | ≥ 10000 |  |  |  | CC(C)c1ccccc1-c1ncc2[nH]cc(Oc3ccc(-c4nc(C(F)(F)F)cn4C)cc3)c2n1 [Compound 2, 2-(2-isopropylphenyl)-7-[4-[1-methyl-4-(trifluoromethyl)imidazol-2-yl]phenoxy]-5H-pyrrolo[3,2-d]pyrimidine] |
| < 30 | < 100 | < 100 | ≥ 10000 |  |  |  | CC(C)c1ccccc1-c1ncc2[nH]cc(Cc3ccc(-c4nc(C(F)(F)F)cn4C)cc3)c2n1 [Compound 10, 2-(2-isopropylphenyl)-7-[[4-[1-methyl-4-(trifluoromethyl)imidazol-2-yl]phenyl]methyl]-5H-pyrrolo[3,2-d]pyrimidine] |
| 30 to 100 | 100 to 250 | 250 to 10000 | ≥ 10000 |  |  |  | COc1ncccc1-c1ncc2[nH]cc(Cc3ccc(-c4nc(C(F)(F)F)cn4C)cc3)c2n1 [Compound 11, 2-(2-methoxy-3-pyridyl)-7-[[4-[1-methyl-4-(trifluoromethyl)imidazol-2-yl]phenyl]methyl]-5H-pyrrolo[3,2-d]pyrimidine] |
| 100 to 10000 | 250 to 10000 | 250 to 10000 | 250 to 10000 |  |  |  | Cn1cc(C(F)(F)F)nc1-c1ccc(Nc2c[nH]c3cnc(-c4ccccc4C4CC4)nc23)cc1 [Compound 12, 2-(2-cyclopropylphenyl)-N-[4-[1-methyl-4-(trifluoromethyl)imidazol-2-yl]phenyl]-5H-pyrrolo[3,2-d]pyrimidin-7-amine] |
| < 30 | < 100 | < 100 | ≥ 10000 |  |  |  | CC(C)c1ccccc1-c1cc2c(Oc3ccc(-c4nc(C(F)(F)F)cn4C)cc3)c[nH]c2cn1 [Compound 14, 5-(2-isopropylphenyl)-3-[4-[1-methyl-4-(trifluoromethyl)imidazol-2-yl]phenoxy]-1H-pyrrolo[2,3-c]pyridine] |
| < 30 | 100 to 250 | < 100 | ≥ 10000 |  |  |  | CCn1cc(C(F)(F)F)nc1-c1ccc(Cc2c[nH]c3cnc(-c4c(OC)ncnc4C4CC4)nc23)cc1 [Compound 15] |
| 100 to 10000 | < 100 | 250 to 10000 | 250 to 10000 |  |  |  | CC(C)c1ccccc1-c1cc2c(Nc3ccc(-c4nc(C(F)(F)F)cn4C)cc3)c[nH]c2cn1 [Compound 17] |
| 100 to 10000 | 100 to 250 | 100 to 250 | ≥ 10000 |  |  |  | COc1ncnc(C2CC2)c1-c1ncc2[nH]cc(Cc3ccc(-c4nc(C(F)(F)F)cn4C4CN(C)C4)cc3)c2n1 [Compound 18, 2-(4-cyclopropyl-6-methoxypyrimidin-5-yl)-7-(4-(1-(1-methylazetidin-3-yl)-4-(trifluoromethyl)-1H-imidazol-2-yl)benzyl)-5H-pyrrolo[3,2-d]pyrimidine] |
| 100 to 10000 | < 100 | 100 to 250 | ≥ 10000 |  |  |  | CN1CC(n2cc(C(F)(F)F)nc2-c2ccc(Cc3c[nH]c4cnc(-c5cccnc5OC(F)F)nc34)cc2)C1 [Compound 20, 2-[2-(difluoromethoxy)-3-pyridyl]-7-[[4-[1-(1-methylazetidin-3-yl)-4-(trifluoromethyl)imidazol-2-yl]phenyl]methyl]-5H-pyrrolo[3,2-d]pyrimidine] |
| < 30 | < 100 | < 100 | 250 to 10000 |  |  |  | COc1ncnc(C2CC2)c1-c1cc2c(Cc3ccc(-c4nc(C(F)(F)F)cn4C)cc3)c[nH]c2cn1 [Compound 23, 5-(4-cyclopropyl-6-methoxy-pyrimidin-5-yl)-3-[[4-[1-methyl-4-(trifluoromethyl)imidazol-2-yl]phenyl]methyl]-1H-pyrrolo[2,3-c]pyridine] |
| < 30 | < 100 | < 100 | ≥ 10000 |  |  |  | CC(C)c1ccccc1-c1ncc2[nH]nc(Cc3ccc(-c4nc(C(F)(F)F)cn4C)cc3)c2n1 [Compound 27, 5-(2-isopropylphenyl)-3-[[4-[1-methyl-4-(trifluoromethyl)imidazol-2-yl]phenyl]methyl]-1H-pyrazolo[4,3-d]pyrimidine] |
| 30 to 100 | 100 to 250 | < 100 | ≥ 10000 |  |  |  | CC(C)n1cc(C(F)(F)F)nc1-c1ccc(Cc2c[nH]c3cnc(-c4cccnc4OC(F)F)nc23)cc1 [Compound 28, 2-[2-(difluoromethoxy)-3-pyridyl]-7-[[4-[1-isopropyl-4-(trifluoromethyl)imidazol-2-yl]phenyl]methyl]-5H-pyrrolo[3,2-d]pyrimidine] |
| 100 to 10000 | 250 to 10000 | 250 to 10000 | ≥ 10000 |  |  |  | CN(C)c1ncccc1-c1ncc2[nH]cc(Cc3ccc(-c4nc(C(F)(F)F)cn4C)cc3)c2n1 [Compound 29, N,N-dimethyl-3-[7-[[4-[1-methyl-4-(trifluoromethyl)imidazol-2-yl]phenyl]methyl]-5H-pyrrolo[3,2-d]pyrimidin-2-yl]pyridin-2-amine] |
| 100 to 10000 | 250 to 10000 | 250 to 10000 | ≥ 10000 |  |  |  | COc1ncnc(C2CC2)c1-c1ncc2[nH]cc(Cc3ccc(-c4nc(C#N)cn4C)cc3)c2n1 [Compound 31, 2-[4-[[2-(4-cyclopropyl-6-methoxy-pyrimidin-5-yl)-5H-pyrrolo[3,2-d]pyrimidin-7-yl]methyl]phenyl]-1-methyl-imidazole-4-carbonitrile] |
| 100 to 10000 | 250 to 10000 | 250 to 10000 | ≥ 10000 |  |  |  | CCn1cc(C(F)(F)F)nc1-c1ccc(C(O)c2c[nH]c3cnc(-c4c(OC)ncnc4C4CC4)nc23)cc1 (stereo not drawn) [Compound 33] |
